The values that follow come from ChEMBL document CHEMBL5584292, “Targeted Isolation of Antiviral Labdane Diterpenes from the Bark of Neo-uvaria foetida (Annonaceae) using LC-MS/MS-Based Molecular Networking” (J Nat Prod, 2024).

pIC50: −log10 of the molar value. The source made the active and inactive calls. The rule behind the calls is not given here.

Series [1] is described as follows: Cytotoxicity against human Huh-7 cells assessed as reduction in cell viability incubated for 48 hrs by MTS assay. The class given is toxicity, cell-based. A general note: Tetrazolium assays rely on reduction of a dye to a coloured formazan, in cell work by metabolically active cells.
For series [2], the system named is Human coronavirus 229E. The series is described as follows: Antiviral activity against Human coronavirus 229E expressing luciferase reporter gene infected in Huh-7 cells assessed as reduction in viral replication incubated for 24 hrs by renilla luciferase based luminometer assay. The class given is functional, organism-based. The conditions noted are these: for pIC50: Huh-7, 24 h.

Series [3] can be described thus: Cytotoxicity against African green monkey Vero E6 cells assessed as reduction in cell viability incubated for 48 hrs by MTS assay. The conditions noted are these: chlorocebus sabaeus. The format is toxicity, cell-based, Vero C1008.
A further series relates to SARS-CoV-2. Nature of the series: Antiviral activity against SARS-CoV-2 infected in African green monkey Vero E6 cells assessed as reduction in viral replication incubated for 48 hrs by Alexa Fluor 488 staining based flow cytometric analysis. The class given is functional, organism-based, Severe acute respiratory syndrome coronavirus 2. The conditions noted are these: for IC50: vero e6; for pIC50: Severe acute respiratory syndrome coronavirus 2, Vero C1008, 48 h, read-out: IC50.

Series [4] relates to Zika virus. The series is described as follows: Antiviral activity against ZIKV expressing GFP infected in African green monkey Vero E6 cells assessed as reduction in viral replication incubated for 24 hrs by flow cytometric analysis. The class given is functional, organism-based. The conditions noted are these: for IC50: vero e6; for pIC50: Zika virus, Vero C1008, 24 h, read-out: IC50. In general terms: A flow cytometer gives signals particle by particle.

Another series concerns Huh-7. The series is described as follows: Cytotoxicity against human Huh-7 cells assessed as reduction in cell viability at 3 to 400 uM incubated for 48 hrs by MTS assay. The class given is toxicity, cell-based. Conditions: huh-7, 48 h, dose 3-400 µM.
The nature of series [5]: Selectivity index, ratio of CC50 for cytotoxicity against human Huh-7 cells to IC50 for antiviral activity against Human coronavirus 229E expressing luciferase reporter gene infected in Huh-7 cells. The format is toxicity, cell-based. Conditions: read-out: Ratio CC50/IC50. On the technique in general: In a reporter assay the amount or activity of a reporter protein is the signal.

A short description of series [6]: Selectivity index, ratio of CC50 for cytotoxicity against African green monkey Vero E6 cells to IC50 for antiviral activity against ZIKV expressing GFP infected in African green monkey Vero E6 cells. The format is toxicity, cell-based. Conditions: read-out: Ratio CC50/IC50.
Series [7] is described as follows: Cytotoxicity against human Huh-7 cells assessed as maximum non-toxic concentration at incubated for 48 hrs by MTS assay. The format is toxicity, cell-based. Conditions: read-out: MNTD>90.
The test system of series [8] is Zika virus. The series is described as follows: Antiviral activity against ZIKV expressing GFP infected in African green monkey Vero E6 cells assessed as reduction in viral replication preincubated for 2 hrs followed by dilution to sub-therapeutic level and measured after 24 hrs by flow cytometric analysis. Conditions: time 26.0 hrs. The format is functional, organism-based.

Series [9] deals with Zika virus. Nature of the series: Antiviral activity against ZIKV expressing GFP infected in African green monkey Vero E6 cells assessed as reduction in viral replication preincubated for 2 hrs followed by compound wash out and measured after 22 hrs by flow cytometric analysis. The format is functional, organism-based. Conditions: time 24.0 hrs.
The subject of series [10] is Zika virus. Nature of the series: Antiviral activity against ZIKV expressing GFP infected in African green monkey Vero E6 cells assessed as reduction in viral replication preincubated for 2 hrs without compound followed by compound addition and measured after 22 hrs by flow cytometric analysis. The format is functional, organism-based.
A short description of series [11]: Selectivity index, ratio of CC50 for cytotoxicity against African green monkey Vero E6 cells to IC50 for antiviral activity against SARS-CoV-2 infected in African green monkey Vero E6 cells. The format is toxicity, cell-based. The conditions noted are these: read-out: Ratio CC50/IC50.
In series [12] the test system is Human coronavirus 229E. The series is described as follows: Antiviral activity against Human coronavirus 229E expressing luciferase reporter gene infected in Huh-7 cells assessed as reduction in viral replication at 6 uM incubated for 24 hrs by renilla luciferase based luminometer assay relative to control. Details: scale not given: the % may be the effect or the level left. The format is functional.

The subject of series [13] is Zika virus. The series is described as follows: Antiviral activity against ZIKV expressing GFP infected in African green monkey Vero E6 cells assessed as reduction in viral replication at 20 uM incubated for 24 hrs by flow cytometric analysis relative to control. The format is functional. Further details: scale not given: the % may be the effect or the level left.

In general, CC50 refers to the concentration at which the toxic effect on the cells reaches its halfway point. By pIC50 is commonly meant the negative decadic logarithm of the IC50, by convention in mol/L. For the molecule `CC1(C)CCC[C@@]2(C)[C@H]1CC[C@]1(O)COC(O)([C@@H](O)CC(=O)O)C[C@@H]12` (stereo not given in full), the CC50 at 48 h was 223 µM in series [1] and > 200 µM in series [3]. Further, in the series on Human coronavirus 229E [2], the pIC50 was < 4.00. The IC50 entry in the series on SARS-CoV-2 and with Zika virus [4] was “Not Active” throughout. Besides, the Activity result in the series with Huh-7 is “Toxic”.
As to `CC1(C)CCC[C@@]2(C)[C@H]1CC[C@@]1(CO)O[C@H](C3=CC(=O)OC3O)C[C@@H]12` (stereo not given in full), the CC50 at 48 h worked out at 46.9 µM in series [1] and 88.3 µM in [3]. Also, the pIC50 was 4.80 in the series with Human coronavirus 229E [2] and 4.50 in the series on Zika virus [4]. Also, the selectivity ratio in series [5] is 3; in series [6], 2.8. Besides, in the series with SARS-CoV-2, the IC50 entry is “Not Active”. Besides, the Activity entry in the series with Huh-7 was “Toxic”. In [7], the MNTC at 48 h is 6 µM. Further, the result with Zika virus [8] was inactive. Besides, the outcome with Zika virus [9] and in the series on Zika virus [10] was Active.
As to `CC1(C)CCC[C@@]2(C)[C@H]1CC[C@]13CO[C@@H]4OC(=O)C=C4[C@H](C[C@@H]12)O3`, the results for the half-maximal cytotoxic concentration (CC50) at 48 h in series [1] and in series [3] were 215 µM and > 200 µM, respectively. In addition, the pIC50 in the series with Human coronavirus 229E [2] was 4.23; in the series with SARS-CoV-2, 4.03. Also, the selectivity ratio is 3.7 in [5] and 2.1 in series [11]. Also, the IC50 result in the series with Zika virus [4] was “Not Active”. For the same molecule, the Activity result in the series with Huh-7 was “Toxic”.
With `CC1(C)CCC[C@@]2(C)[C@H]1CC[C@]1(CO)O[C@H](C3=CC(=O)OC3O)C[C@@H]12` (stereo not given in full), the figures for the CC50 at 48 h in [1] and in [3] were 172 µM and 200 µM, respectively. The results for the pIC50 with Human coronavirus 229E [2], with SARS-CoV-2 and in the series with Zika virus [4] were 4.60, 5.20 and 4.12, respectively. Further, the selectivity ratio in [5] turned out to be 6.8; in [11] it was 3.2; in series [6] it was 2.6. Besides, the Activity result in the series with Huh-7 was “Toxic”. Moreover, in the series with Zika virus [8], the result was inactive. Further, the outcome with Zika virus [9] and with Zika virus [10] was Active.
Consider `CC1(C)CCC[C@@]2(C)[C@H]1CC[C@]13COC4(CC(=O)O[C@H]4O)[C@H](C[C@@H]12)O3` (stereo not given in full), for which the CC50 at 48 h in [1] is 435 µM; in series [3], > 200 µM. In addition, the negative-log IC50 (pIC50) with Human coronavirus 229E [2] is < 4.00. The IC50 result with SARS-CoV-2 and in the series on Zika virus [4] was “Not Active” in each case. The Activity entry in the series on Huh-7 is on record as “Non-Toxic”.
On to `CC(=O)OC[C@@]12CC[C@H]3C(C)(C)CCC[C@]3(C)[C@H]1C[C@@H](C1=CC(=O)OC1O)O2` (stereo not given in full), for which the figures for the CC50 at 48 h in series [1] and in series [3] were 14 µM and 55.9 µM, respectively. Besides, the Activity result with Human coronavirus 229E [2] is “Dose-Dependent Effect”; with Huh-7, “Toxic”; in the series with Human coronavirus 229E [12], 80%; in the series with Zika virus [13], >90%. In addition, the pIC50 in the series with Human coronavirus 229E [2] was 5.64; in the series on Zika virus [4] it was 4.83. The selectivity ratio in series [5] came to 6.2; in [6] it was 3.8. Moreover, the IC50 entry with SARS-CoV-2 is recorded as “Not Active”. Moreover, in series [7], the MNTC at 48 h came to 30 µM. The outcome in the series on Zika virus [8] was inactive. The result in the series on Zika virus [9] and in the series on Zika virus [10] was Active.
On to `CCC(CC)COC(=O)[C@H](C)N[P@](=O)(OC[C@H]1O[C@@](C#N)(c2ccc3c(N)ncnn23)[C@H](O)[C@@H]1O)Oc1ccccc1` [REMDESIVIR], for which the CC50 at 48 h was 90 µM in series [1] and > 100 µM in series [3]. Besides, the values for the pIC50 with Human coronavirus 229E [2] and in the series on SARS-CoV-2 were 7.40 and 4.60, respectively. Moreover, the selectivity ratio in [5] stood at 2250; in series [11] it was 4.
